In paper PMC11477621, “Design, Synthesis, and Biological Evaluation of HDAC Inhibitors Containing Natural Product-Inspired N-Linked 2-Acetylpyrrole Cap” (Molecules, 2024):

Columns and labels:
[1] = target: T1, HDAC1 (Homo sapiens, UniProt Q13547); assay: HDAC inhibition assay (HTRF), HDAC1; type: biochemical; settings: read-out: IC50 ± SD, HDAC1;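 note: HTRF detection with streptavidin-XL665 plus Eu(K)-labelled anti-H3K9me0 antibody, two independent runs with duplicate wells per concentration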
T1 construct: purchased BPS #50001
Procedure: (§3) Then, SA-XL665 (#610SAXLG, Cisbio, Bedford, MA, USA) and anti-H3K9me0-Eu(K) (#61KB0KAD, Cisbio, USA) were added. […] The IC50 value of the compounds was calculated using GraphPad 7.0 software. Each set of experiments was independently repeated twice, with two replicate wells per concentration each time.

[2] = target: T2, HDAC6 (Homo sapiens, UniProt Q9UBN7); assay: HDAC inhibition assay (HTRF), HDAC6; type: biochemical; settings: read-out: IC50 ± SD, HDAC6
T2 construct: purchased BPS #50006
T2 sequence (Q9UBN7 1-1215): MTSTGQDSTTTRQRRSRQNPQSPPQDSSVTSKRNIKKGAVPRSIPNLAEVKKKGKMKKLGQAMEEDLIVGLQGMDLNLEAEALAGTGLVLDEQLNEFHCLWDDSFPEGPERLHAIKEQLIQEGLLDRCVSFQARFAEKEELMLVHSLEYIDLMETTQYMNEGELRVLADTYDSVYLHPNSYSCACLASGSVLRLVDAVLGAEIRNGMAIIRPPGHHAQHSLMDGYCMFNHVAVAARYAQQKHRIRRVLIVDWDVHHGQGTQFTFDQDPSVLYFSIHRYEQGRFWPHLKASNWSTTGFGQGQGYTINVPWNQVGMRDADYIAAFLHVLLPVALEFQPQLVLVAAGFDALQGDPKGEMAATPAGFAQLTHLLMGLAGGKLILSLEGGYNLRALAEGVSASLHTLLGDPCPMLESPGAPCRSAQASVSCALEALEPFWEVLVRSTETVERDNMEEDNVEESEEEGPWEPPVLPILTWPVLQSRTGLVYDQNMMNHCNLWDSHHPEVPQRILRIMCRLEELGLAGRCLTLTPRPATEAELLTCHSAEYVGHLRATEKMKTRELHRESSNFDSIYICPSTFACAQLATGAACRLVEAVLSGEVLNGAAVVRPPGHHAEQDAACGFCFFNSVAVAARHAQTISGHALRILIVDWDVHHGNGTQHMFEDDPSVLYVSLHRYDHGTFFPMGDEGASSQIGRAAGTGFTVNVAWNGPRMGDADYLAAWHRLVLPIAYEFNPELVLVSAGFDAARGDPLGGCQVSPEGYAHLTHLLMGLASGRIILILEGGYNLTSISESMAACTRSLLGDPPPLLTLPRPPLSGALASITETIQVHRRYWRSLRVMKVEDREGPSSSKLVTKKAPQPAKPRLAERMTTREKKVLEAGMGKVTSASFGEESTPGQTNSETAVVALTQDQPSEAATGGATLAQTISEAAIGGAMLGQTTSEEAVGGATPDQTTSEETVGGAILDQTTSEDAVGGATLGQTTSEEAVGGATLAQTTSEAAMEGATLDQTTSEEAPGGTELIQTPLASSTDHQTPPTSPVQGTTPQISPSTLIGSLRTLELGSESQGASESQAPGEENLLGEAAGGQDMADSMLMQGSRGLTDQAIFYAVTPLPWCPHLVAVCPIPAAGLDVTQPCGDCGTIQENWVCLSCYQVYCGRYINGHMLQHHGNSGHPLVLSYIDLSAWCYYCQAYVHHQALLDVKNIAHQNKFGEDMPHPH
Procedure: as §3

[3] = tested on: HCT-116 (human colon cancer cell line); assay: CCK8 cell viability assay, HCT-116; type: cell-based; settings: 72 h, read-out: Proliferation inhibition IC50 ± SD, HCT-116
Procedure: (§1) The CCK8 (#AC11L054, Life ilab, Shanghai, China) method was used to detect the cells’ proliferation. Cells were seeded into a 96-well culture plate at an appropriate density. […] IC50 values were estimated using the four-parameter method. Each set of experiments was repeated independently three times with three replicate wells per concentration each time.

[4] = tested on: HL-60 (human leukemia cell line); assay: CCK8 cell viability assay, HL-60; type: cell-based; settings: 72 h, read-out: Proliferation inhibition IC50 ± SD, HL-60
Procedure: as §1

[5] = tested on: RPMI-8226 (human myeloma cell line); assay: CCK8 cell viability assay, RPMI-8226; type: cell-based; settings: 72 h, read-out: Proliferation inhibition IC50 ± SD, RPMI-8226
Procedure: as §1

[6] = tested on: RPMI-8226 cells; assay: Apoptosis assay, Annexin V-FITC/PI flow cytometry; type: cell-based, human; settings: 1, 3 and 10 μM, 48 h
Text: Annexin V-FITC and PI double-staining detection kits were used to determine apoptotic cells. […] Data results were obtained from three independent experiments.

[7] = target: HDAC3 (Homo sapiens, UniProt O15379); assay: HDAC inhibition assay (HTRF), HDAC3;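 note: HTRF detection with streptavidin-XL665 and a Eu cryptate-labelled antibody against unmodified H3K9, two independent runs with duplicate wells at each concentration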
Procedure: as §3

[8] = tested on: Ac-histone H3 in RPMI-8226 cells; assay: Western blot of Ac-histone H3; type: cell-based, human; settings: 24 h; for Histone H3 acetylation level: 10 μM
Procedure: (§2) RPMI-8226 cells were seeded in six-well plates and treated with compounds for 24 h. Cells were lysed with 1× SDS loading buffer (50 mM Tris pH 6.8, 100 mM DTT, 2% SDS, 0.1% bromophenol blue, 10% glycerol), and then centrifuged at 12,000 rpm for 5 min at 4 °C. Cell extracts were probed with antibodies Ac-Tubulin (#5335T, CST, Kansas City, MO, USA), α-Tubulin (#2144S, CST, Kansas City, MO, USA), AcH3 (#ab39139, active motif, Carlsbad, CA, USA), Histone H3 (#17168-1-AP, Proteintech, Chicago, IL, USA), GAPDH (#60004-1-1g, Proteintech, Chicago, IL, USA), Goat Anti-Mouse IgG, H&L Chain Specific Peroxidase Conjugate (#401215, Calbiochem, Darmstadt, Germany), Goat Anti-Rabbit IgG, or H&L Chain Specific Peroxidase Conjugate (#401353, Calbiochem, Germany), then detected using Bio-RAD power pal Basic (#041BR66615, BioRad Laboratories, Hercules, CA, USA), Bio-RAD Mini-PROTEAN Tetrade System (#IEC/EN 61010-1, BioRad Laboratories, Hercules, CA, USA), or Bio-RAD Chemi Touch Imagin (BioRad Laboratories, Hercules, CA, USA).

[9] = tested on: Ac-tubulin in RPMI-8226 cells; assay: Western blot of Ac-tubulin; type: cell-based, human; settings: 24 h; for Ac-α-tubulin protein expression: tested concentrations
Procedure: as §2

[10] = Pharmacokinetic study in male ICR mice; type: in vivo; settings: mouse, plasma
Procedure: Specific procedures were referred to the reported method. ICR mice (n = 6) were fasted for 12 h before administration and remained fasting for 2 h. The animal room environment was controlled (target conditions: temperature 18 to 29 °C, relative humidity 30 to 70%). Temperature and relative humidity were monitored daily. An electronic time-controlled lighting system was used to provide a 12 h light/12 h dark cycle. Compound 20 was administered at doses of 5 mg/kg (po) and 1 mg/kg (iv). The time points for blood sample collection were 0.25, 0.50, 1.00, 2.00, 4.00, 8.00, and 24 h post dose for the po-administrated group, and the time points were 0.05, 0.25, 0.75, 2.00, 4.00, 8.00, and 24 h for the iv group. For each point, 20 μL of plasma were transferred into a clean tube, 200 μL of MeOH/ACN (50/50, v/v) containing IS were added, and they were thoroughly vortexed by a vortex mixer for 1 min. The mixture was centrifuged at 15000 rpm for 5 min, and then 20 μL of supernatant was mixed with 20 μL of water for the analysis by LC-MS.

[11] = ref [46],[47]; cited from earlier work

T1 sequence (Q13547 whole entry): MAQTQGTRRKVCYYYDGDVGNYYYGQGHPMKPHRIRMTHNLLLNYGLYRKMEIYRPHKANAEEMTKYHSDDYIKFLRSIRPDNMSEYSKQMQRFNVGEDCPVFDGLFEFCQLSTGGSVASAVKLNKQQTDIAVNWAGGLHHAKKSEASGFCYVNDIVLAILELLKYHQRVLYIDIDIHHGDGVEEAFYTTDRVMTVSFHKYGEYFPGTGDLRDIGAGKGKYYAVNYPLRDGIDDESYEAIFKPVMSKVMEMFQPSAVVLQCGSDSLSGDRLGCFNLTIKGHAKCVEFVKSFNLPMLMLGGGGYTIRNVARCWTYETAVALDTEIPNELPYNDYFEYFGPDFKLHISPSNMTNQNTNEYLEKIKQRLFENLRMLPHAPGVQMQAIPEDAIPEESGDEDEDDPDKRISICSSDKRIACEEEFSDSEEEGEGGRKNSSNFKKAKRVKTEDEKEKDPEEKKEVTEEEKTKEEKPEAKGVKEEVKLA
Sequence of HDAC3 (O15379 whole entry): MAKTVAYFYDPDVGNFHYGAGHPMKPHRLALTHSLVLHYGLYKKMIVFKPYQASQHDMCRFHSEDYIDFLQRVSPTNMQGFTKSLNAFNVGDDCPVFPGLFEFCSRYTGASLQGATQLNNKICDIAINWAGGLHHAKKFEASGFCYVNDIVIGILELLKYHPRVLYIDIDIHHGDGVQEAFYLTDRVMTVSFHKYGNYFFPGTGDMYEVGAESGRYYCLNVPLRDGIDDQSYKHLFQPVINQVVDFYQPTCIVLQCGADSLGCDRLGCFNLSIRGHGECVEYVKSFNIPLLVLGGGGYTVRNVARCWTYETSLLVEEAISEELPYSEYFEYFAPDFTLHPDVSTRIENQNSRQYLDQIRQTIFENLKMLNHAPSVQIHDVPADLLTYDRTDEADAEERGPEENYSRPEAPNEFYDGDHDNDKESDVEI
Sequence of HDAC3 (Q9Y618 395-489 partner limits assumed): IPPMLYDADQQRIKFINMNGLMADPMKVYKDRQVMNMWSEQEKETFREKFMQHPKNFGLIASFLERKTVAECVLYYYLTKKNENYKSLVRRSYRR

| Compound | IC50 [1] | IC50 [2] | IC50 [3] | IC50 [4] | IC50 [5] | Promotion of RPMI-8226 cell apoptosis [6] | IC50 [7] | Histone H3 acetylation level [8] | Ac-α-tubulin protein expression [9] | F% (oral bioavailability) [11] | also measured |
| --- | --- | --- | --- | --- | --- | --- | --- | --- | --- | --- | --- |
| O=C(CCCCCCn1cccc1C(=O)C(F)(F)F)NO [Compound 5c, N-hydroxy-7-(2-(2,2,2-trifluoroacetyl)-1H-pyrrol-1-yl)heptanamide] | 0.0368 ± 0.00587 µM | 0.00422 ± 0.0001 µM | 12.3 ± 2.2 µM | 8.56 ± 1.47 µM | 11.9 ± 1.58 µM | promote RPMI-8226 cell apoptosis in a dose-dependent manner | 0.0266 ± 0.0019 µM |  |  |  |  |
| CC(=O)c1cccn1Cc1ccc(/C=C/C(=O)NO)cc1 [Compound 14, (E)-3-(4-((2-acetyl-1H-pyrrol-1-yl)methyl)phenyl)-N-hydroxyacrylamide] | 0.8 ± 0.0504 µM | 0.0337 ± 0.0148 µM | 8.63 ± 0.82 µM | 8.16 ± 1.96 µM | 8.85 ± 2.3 µM | promote RPMI-8226 cell apoptosis in a dose-dependent manner | 0.457 ± 0.173 µM |  |  |  | Acetylated histone H3 compared to compound 5c ([8]; same concentration): induced more acetylated tubulin and acetylated histone H3; Acetylated tubulin compared to compound 5c ([9]; same concentration): induced more acetylated tubulin |
| CC(=O)c1cccn1Cc1cn(CCc2ccc(C(=O)Nc3ccccc3N)cc2)nn1 [Compound 19a, 4-(2-(4-((2-Acetyl-1H-pyrrol-1-yl)methyl)-1H-1,2,3-triazol-1-yl)ethyl)-N-(2-aminophenyl)benzamide] | 1.1 ± 0.144 µM | > 10 µM | 13.2 ± 2.48 µM | 8.32 ± 0.37 µM | 10 ± 0.52 µM | promote RPMI-8226 cell apoptosis in a dose-dependent manner | 1.39 ± 0.373 µM | increased histone H3 acetylation levels comparable to MS-275 | no discernible effect |  |  |
| CC(=O)c1cccn1CCc1ccc(C(=O)Nc2ccccc2N)cc1 [Compound 20, 4-(2-(2-Acetyl-1H-pyrrol-1-yl)ethyl)-N-(2-aminophenyl)benzamide] | 0.441 ± 0.0782 µM | > 10 µM | 9.08 ± 0.58 µM | 4.71 ± 0.24 µM | 2.89 ± 0.43 µM | promote RPMI-8226 cell apoptosis in a dose-dependent manner | 1.08 ± 0.229 µM | increased histone H3 acetylation levels comparable to MS-275 | no discernible effect |  | AUC(0-inf) ([10]; iv, 1 mg/kg): 163 ± 3 ng·h/mL; AUC(0-t) ([10]; iv, 1 mg/kg): 163 ± 3 ng·h/mL; MRT inf ([10]; iv, 1 mg/kg): 10.9 ± 0.36 min; clearance ([10]; iv, 1 mg/kg): 102 ± 2 mL/min/kg; half-life ([10]; iv, 1 mg/kg): 11.5 ± 0.72 min; Vd ([10]; iv, 1 mg/kg, read-out: Vss): 1.11 ± 0.052 L/kg; AUC(0-inf) ([10]; po, 5 mg/kg): 47.2 ± 26.6 ng·h/mL; AUC(0-t) ([10]; po, 5 mg/kg): 40.7 ± 21.8 ng·h/mL; Cmax ([10]; po, 5 mg/kg): 48.3 ± 31.1 ng/mL; MRT inf ([10]; po, 5 mg/kg): 110 ± 25.2 min; Tmax ([10]; po, 5 mg/kg): 20 ± 8.64 min; half-life ([10]; po, 5 mg/kg): 93 ± 30.6 min; bioavailability ([10]; po, 5 mg/kg, read-out: F (oral bioavailability)): 5% |
| O=C(CCCCCCC(=O)Nc1ccccc1)NO [SAHA, vorinostat] |  |  |  |  |  |  |  |  |  | 8.33% |  |
| Cc1[nH]c2ccccc2c1CCNCc1ccc(/C=C/C(=O)NO)cc1 [panobinostat] |  |  |  |  |  |  |  |  |  | 4.62% |  |
